Results as given in patent US9409905B2, “Antibacterial compounds and methods for use” (PTC THERAPEUTICS, INC., priority 2011, dated 2016).
In brackets after ≈: the same amount, converted by molar mass.

What was measured:
[1] = test system: E. coli ELZ4251; experiment: Antibacterial activity, MIC, multi-drug resistant clinical isolate (Table 3); assay type: cell-based; settings: Escherichia coli
From the text: (§1) The antibacterial activity from a microbroth dilution method may be presented as the minimum inhibitory concentration (MIC in μg/mL). The MIC value is the lowest concentration of drug which prevents macroscopically visible growth under test conditions.
(§2) Antibacterial activity of test compounds against E. coli ELZ4000 and E. coli ELZ4251 multi-drug resistant clinical isolates is shown in Table 3.

[2] = test system: E. coli ELZ4000; experiment: as above; assay type: cell-based; settings: Escherichia coli, ELZ4000, read-out: MIC ELZ4000
From the text: as §1, §2

[3] = test system: A. baumannii MXX2240; experiment: Antibacterial activity, MIC, resistant strain (Table 4); assay type: cell-based; settings: Acinetobacter baumannii, MXX2240; resistant A. baumannii MMX2240, multi-drug resistant clinical isolate; read-out: MIC, MMX2240
Procedure, shortened: (§3)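 The resistant panel comprises multi-drug resistant clinical isolates. All strains were tested by microbroth dilution, with the MIC in μg/mL taken as the lowest concentration that prevented macroscopically visible growth.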

[4] = test system: K. pneumoniae MXX1232; experiment: as above; assay type: cell-based; settings: Klebsiella pneumoniae, MXX1232; resistant K. pneumoniae MMX1232, multi-drug resistant clinical isolate; read-out: MIC, MMX1232
Procedure, shortened: as §3

[5] = test system: E. coli 25922; experiment: Antibacterial activity, microbroth dilution MIC (Table 1); assay type: cell-based, Escherichia coli; settings: Escherichia coli; microbroth dilution; control Gram-negative E. coli 25922 strain; read-out: MIC, 25922
Procedure, shortened: (§4)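 Microbroth dilution was used. MIC, in μg/mL, is the lowest drug concentration preventing macroscopically visible growth under the test conditions.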

[6] = test system: Acinetobacter baumannii (A. baumannii) BAA747; experiment: Antibacterial activity, MIC (Table 4); assay type: cell-based; settings: A. baumannii BAA747, read-out: MIC, BAA747
Procedure, shortened: as §3

[7] = test system: Escherichia coli (E. coli) BAS849; experiment: Antibacterial activity, microbroth dilution MIC (Table 1); assay type: cell-based; settings: microbroth dilution, super sensitive Gram-negative E. coli BAS849, read-out: MIC, BAS849
Procedure, shortened: as §4

[8] = test system: Staphylococcus aureus (S. aureus) 29213; experiment: as above; assay type: cell-based; settings: microbroth dilution, Gram-positive S. aureus 29213, read-out: MIC, 29213
Procedure, shortened: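 Read-out: visual absence of growth. The lowest concentration meeting this gives the MIC, expressed in μg/mL, with microbroth dilution as the method.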

[9] = test system: E. coli LZ3111; experiment: Antibacterial activity, MIC, quinolone resistant strain (Table 2); assay type: cell-based; settings: Escherichia coli, LZ3111, read-out: MIC LZ3111
Procedure, shortened: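 MIC values (μg/mL) came from a microbroth dilution assay, scored as the lowest drug concentration at which no growth was visible by eye.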

[10] = test system: Pseudomonas aeruginosa (P. aeruginosa) 27853; experiment: Antibacterial activity, MIC (Table 5); assay type: cell-based; settings: P. aeruginosa 27853, read-out: MIC, 27853
Procedure, shortened: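 Values are MICs in μg/mL, read as the lowest concentration at which no growth is visible by eye. They were determined by a microbroth dilution method.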

[11] = test system: Klebsiella pneumoniae (K. pneumoniae) 35657; experiment: Antibacterial activity, MIC (Table 4); assay type: cell-based; settings: K. pneumoniae 35657, read-out: MIC, 35657
Procedure, shortened: as §3

Structure (SMILES) | MIC [1] | MIC [2] | MIC [3] | MIC [4] | MIC [5] | MIC [6] | MIC [7] | MIC [8] | MIC [9] | MIC [10] | MIC [11]
CCc1c(-c2ccc3c(ccn3CCO)c2)[nH]c(=O)c(C(=O)O)c1O [Cpd 24, 5-ethyl-4-hydroxy-6-(1-(2-hydroxyethyl)-1H-indol-5-yl)-2-oxo-1,2-dihydropyridine-3-carboxylic acid] | 12.5 to 150 µg/mL (≈ 36.5 to 438 µM) | 12.5 to 150 µg/mL (≈ 36.5 to 438 µM) | 12.5 to 150 µg/mL (≈ 36.5 to 438 µM) | 12.5 to 150 µg/mL (≈ 36.5 to 438 µM) | 3.5 to 12.5 µg/mL (≈ 10.2 to 36.5 µM) | 3.5 to 12.5 µg/mL (≈ 10.2 to 36.5 µM) | < 1 µg/mL | 3.5 to 12.5 µg/mL (≈ 10.2 to 36.5 µM) | 12.5 to 150 µg/mL (≈ 36.5 to 438 µM) |  | 
CCc1c(-c2ccc3c(c2)cc(CN2CC[C@@H](F)C2)n3C)[nH]c(=O)c(C(=O)O)c1O [Cpd 177, (R)-5-ethyl-6-(2-((3-fluoropyrrolidin-1-yl)methyl)-1-methyl-1H-indol-5-yl)-4-hydroxy-2-oxo-1,2-dihydropyridine-3-carboxylic acid] | 3.5 to 12.5 µg/mL (≈ 8.47 to 30.2 µM) | 12.5 to 150 µg/mL (≈ 30.2 to 363 µM) |  | 12.5 to 150 µg/mL (≈ 30.2 to 363 µM) | 1 to 3.5 µg/mL (≈ 2.42 to 8.47 µM) |  | < 1 µg/mL | 3.5 to 12.5 µg/mL (≈ 8.47 to 30.2 µM) | 3.5 to 12.5 µg/mL (≈ 8.47 to 30.2 µM) | 12.5 to 150 µg/mL (≈ 30.2 to 363 µM) | 1 to 3.5 µg/mL (≈ 2.42 to 8.47 µM)
CCc1c(-c2ccc3c(c2)cc(CN2CCC(OC)C2)n3C)[nH]c(=O)c(C(=O)O)c1O (stereo not shown) [Cpd 179, 5-ethyl-4-hydroxy-6-(2-((3-methoxypyrrolidin-1-yl)methyl)-1-methyl-1H-indol-5-yl)-2-oxo-1,2-dihydropyridine-3-carboxylic acid] | 3.5 to 12.5 µg/mL (≈ 8.23 to 29.4 µM) | 12.5 to 150 µg/mL (≈ 29.4 to 353 µM) | 3.5 to 12.5 µg/mL (≈ 8.23 to 29.4 µM) | 12.5 to 150 µg/mL (≈ 29.4 to 353 µM) | 1 to 3.5 µg/mL (≈ 2.35 to 8.23 µM) | 1 to 3.5 µg/mL (≈ 2.35 to 8.23 µM) | < 1 µg/mL | 3.5 to 12.5 µg/mL (≈ 8.23 to 29.4 µM) | 3.5 to 12.5 µg/mL (≈ 8.23 to 29.4 µM) | 12.5 to 150 µg/mL (≈ 29.4 to 353 µM) | 
CCc1c(-c2ccc3c(c2)cc(CN2CC(F)C2)n3C)[nH]c(=O)c(C(=O)O)c1O [Cpd 194, 5-ethyl-6-(2-((3-fluoroazetidin-1-yl)methyl)-1-methyl-1H-indol-5-yl)-4-hydroxy-2-oxo-1,2-dihydropyridine-3-carboxylic acid] | 12.5 to 150 µg/mL (≈ 31.3 to 376 µM) | 12.5 to 150 µg/mL (≈ 31.3 to 376 µM) | 3.5 to 12.5 µg/mL (≈ 8.76 to 31.3 µM) | 12.5 to 150 µg/mL (≈ 31.3 to 376 µM) | 1 to 3.5 µg/mL (≈ 2.5 to 8.76 µM) | 1 to 3.5 µg/mL (≈ 2.5 to 8.76 µM) | < 1 µg/mL | 3.5 to 12.5 µg/mL (≈ 8.76 to 31.3 µM) | 3.5 to 12.5 µg/mL (≈ 8.76 to 31.3 µM) | 12.5 to 150 µg/mL (≈ 31.3 to 376 µM) | 
CCc1c(-c2ccc3c(c2)cc(CN2CCCC2CN(C)C)n3C)[nH]c(=O)c(C(=O)O)c1O (stereo not shown) [Cpd 202, 6-(2-((2-((dimethylamino)methyl)pyrrolidin-1-yl)methyl)-1-methyl-1H-indol-5-yl)-5-ethyl-4-hydroxy-2-oxo-1,2-dihydropyridine-3-carboxylic acid] | 12.5 to 150 µg/mL (≈ 27.6 to 331 µM) | 12.5 to 150 µg/mL (≈ 27.6 to 331 µM) |  |  | 3.5 to 12.5 µg/mL (≈ 7.73 to 27.6 µM) | 12.5 to 150 µg/mL (≈ 27.6 to 331 µM) | < 1 µg/mL | 12.5 to 150 µg/mL (≈ 27.6 to 331 µM) | 3.5 to 12.5 µg/mL (≈ 7.73 to 27.6 µM) | 12.5 to 150 µg/mL (≈ 27.6 to 331 µM) | 
CCc1c(-c2ccc3c(c2)cc(CN2CC(CO)C2)n3C)[nH]c(=O)c(C(=O)O)c1O [Cpd 271, 5-ethyl-4-hydroxy-6-(2-((3-(hydroxymethyl)azetidin-1-yl)methyl)-1-methyl-1H-indol-5-yl)-2-oxo-1,2-dihydropyridine-3-carboxylic acid] | 3.5 to 12.5 µg/mL (≈ 8.51 to 30.4 µM) | 12.5 to 150 µg/mL (≈ 30.4 to 365 µM) | 12.5 to 150 µg/mL (≈ 30.4 to 365 µM) | 12.5 to 150 µg/mL (≈ 30.4 to 365 µM) | < 1 µg/mL | 1 to 3.5 µg/mL (≈ 2.43 to 8.51 µM) | < 1 µg/mL | 12.5 to 150 µg/mL (≈ 30.4 to 365 µM) | 3.5 to 12.5 µg/mL (≈ 8.51 to 30.4 µM) | 3.5 to 12.5 µg/mL (≈ 8.51 to 30.4 µM) | 
CCc1c(-c2ccc3c(c2)cc(CN2C[C@H]4CCC[C@@H](N)[C@H]4C2)n3C)[nH]c(=O)c(C(=O)O)c1O [Cpd 284, 6-(2-(((3aR,4R,7aS)-4-amino-1H-isoindol-2(3H,3aH,4H,5H,6H,7H,7aH)-yl)methyl)-1-methyl-1H-indol-5-yl)-5-ethyl-4-hydroxy-2-oxo-1,2-dihydropyridine-3-carboxylic acid] | 12.5 to 150 µg/mL (≈ 26.9 to 323 µM) | 12.5 to 150 µg/mL (≈ 26.9 to 323 µM) |  |  | 1 to 3.5 µg/mL (≈ 2.15 to 7.53 µM) |  | < 1 µg/mL | 12.5 to 150 µg/mL (≈ 26.9 to 323 µM) | 3.5 to 12.5 µg/mL (≈ 7.53 to 26.9 µM) | 3.5 to 12.5 µg/mL (≈ 7.53 to 26.9 µM) | 
CCc1c(-c2ccc3c(c2)cc(CN2C[C@H]4C[C@@H](N)C[C@H]4C2)n3C)[nH]c(=O)c(C(=O)O)c1O [Cpd 287, 6-(2-(((3aR,5r,6aS)-5-aminohexahydrocyclopenta[c]pyrrol-2(1H)-yl)methyl)-1-methyl-1H-indol-5-yl)-5-ethyl-4-hydroxy-2-oxo-1,2-dihydropyridine-3-carboxylic acid] | 12.5 to 150 µg/mL (≈ 27.7 to 333 µM) | 12.5 to 150 µg/mL (≈ 27.7 to 333 µM) |  |  | 3.5 to 12.5 µg/mL (≈ 7.77 to 27.7 µM) |  | < 1 µg/mL | 3.5 to 12.5 µg/mL (≈ 7.77 to 27.7 µM) | 3.5 to 12.5 µg/mL (≈ 7.77 to 27.7 µM) | 12.5 to 150 µg/mL (≈ 27.7 to 333 µM) | 
